# Test results reported in PubChem BioAssay (NCI).
#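 Values below derive from 48-hour exposures of cells grown in 96-well plates, with endpoints linearly interpolated between the two concentrations bracketing the appropriate inhibition level. Here, GI50 denotes the concentration required for 50% inhibition of growth. TGI: concentration producing complete growth inhibition.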
# Legend:
# Assay in all cases: growth of human tumour cells (NCI), 48 h
# EKVX NSCLC = test system: EKVX NSCLC
# OVCAR-8 ovarian = test system: OVCAR-8 ovarian
# SK-MEL-5 melanoma = test system: SK-MEL-5 melanoma
# OVCAR-4 ovarian = test system: OVCAR-4 ovarian
# IGROV1 ovarian = test system: IGROV1 ovarian
# MALME-3M melanoma = test system: MALME-3M melanoma
# MDA-MB-231 breast = test system: MDA-MB-231 breast
# UACC-257 melanoma = test system: UACC-257 melanoma
# SF-295 CNS = test system: SF-295 CNS
# HCT-116 colon = test system: HCT-116 colon
# RXF 393 renal = test system: RXF 393 renal
# OVCAR-3 ovarian = test system: OVCAR-3 ovarian
# BT-549 breast = test system: BT-549 breast
# U251 CNS = test system: U251 CNS
# LOX IMVI melanoma = test system: LOX IMVI melanoma
# NCI-H23 lung = test system: NCI-H23 lung
# HS 578T breast = test system: HS 578T breast
# SK-OV-3 ovarian = test system: SK-OV-3 ovarian
# NCI-H522 lung = test system: NCI-H522 lung
# A549 NSCLC = test system: A549 NSCLC
# A498 renal = test system: A498 renal
# MOLT-4 leukemia = test system: MOLT-4 leukemia
# OVCAR-5 ovarian = test system: OVCAR-5 ovarian
# SR leukemia = test system: SR leukemia
# SK-MEL-28 melanoma = test system: SK-MEL-28 melanoma
# SW-620 colon = test system: SW-620 colon
# SN12C renal = test system: SN12C renal
# SNB-19 CNS = test system: SNB-19 CNS
# NCI/ADR-RES ovarian = test system: NCI/ADR-RES ovarian
# MDA-MB-435 = test system: MDA-MB-435
# TK-10 renal = test system: TK-10 renal
# SK-MEL-2 melanoma = test system: SK-MEL-2 melanoma
# K-562 leukemia = test system: K-562 leukemia
# CAKI-1 renal = test system: CAKI-1 renal
# HOP-62 NSCLC = test system: HOP-62 NSCLC
# HOP-92 NSCLC = test system: HOP-92 NSCLC
# HCC-2998 colon = test system: HCC-2998 colon
# COLO 205 colon = test system: COLO 205 colon
# HCT-15 colon = test system: HCT-15 colon
# SF-539 CNS = test system: SF-539 CNS
# SNB-75 CNS = test system: SNB-75 CNS
# NCI-H226 lung = test system: NCI-H226 lung
# M14 melanoma = test system: M14 melanoma
# T-47D breast = test system: T-47D breast
# MCF7 breast = test system: MCF7 breast
# ACHN renal = test system: ACHN renal
# HL-60(TB) leukemia = test system: HL-60(TB) leukemia
# UACC-62 melanoma = test system: UACC-62 melanoma
# UO-31 renal = test system: UO-31 renal
# 786-0 renal = test system: 786-0 renal
# PC-3 prostate = test system: PC-3 prostate
# NCI-H460 lung = test system: NCI-H460 lung
# DU-145 prostate = test system: DU-145 prostate
structure (smiles),measurement,setting,value
CC(C)(C)n1cc(-c2ccnc(NCCCNS(=O)(=O)c3ccc(C(F)(F)F)cc3)c2)c(-c2cccc(O)c2)n1,GI50,EKVX NSCLC,1820 nM
same,TGI,EKVX NSCLC,3950 nM
same,GI50,OVCAR-8 ovarian,2460 nM
same,TGI,OVCAR-8 ovarian,6440 nM
same,GI50,SK-MEL-5 melanoma,1600 nM
same,TGI,SK-MEL-5 melanoma,2970 nM
same,GI50,OVCAR-4 ovarian,2290 nM
same,TGI,OVCAR-4 ovarian,5250 nM
same,GI50,IGROV1 ovarian,1800 nM
same,TGI,IGROV1 ovarian,3550 nM
same,GI50,MALME-3M melanoma,1720 nM
same,TGI,MALME-3M melanoma,3380 nM
same,GI50,MDA-MB-231 breast,2130 nM
same,TGI,MDA-MB-231 breast,3980 nM
same,GI50,UACC-257 melanoma,2070 nM
same,TGI,UACC-257 melanoma,4600 nM
same,GI50,SF-295 CNS,1690 nM
same,TGI,SF-295 CNS,3120 nM
same,GI50,HCT-116 colon,1550 nM
same,TGI,HCT-116 colon,3080 nM
same,GI50,RXF 393 renal,1460 nM
same,TGI,RXF 393 renal,2890 nM
same,GI50,OVCAR-3 ovarian,1960 nM
same,TGI,OVCAR-3 ovarian,3840 nM
same,GI50,BT-549 breast,1610 nM
same,TGI,BT-549 breast,3050 nM
same,GI50,U251 CNS,1710 nM
same,TGI,U251 CNS,3530 nM
same,GI50,LOX IMVI melanoma,1720 nM
same,TGI,LOX IMVI melanoma,3090 nM
same,GI50,NCI-H23 lung,1670 nM
same,TGI,NCI-H23 lung,3180 nM
same,GI50,HS 578T breast,1980 nM
same,TGI,HS 578T breast,4840 nM
same,GI50,SK-OV-3 ovarian,2690 nM
same,TGI,SK-OV-3 ovarian,6750 nM
same,GI50,NCI-H522 lung,1990 nM
same,TGI,NCI-H522 lung,3980 nM
same,GI50,A549 NSCLC,2020 nM
same,TGI,A549 NSCLC,4580 nM
same,GI50,A498 renal,1540 nM
same,TGI,A498 renal,4200 nM
same,GI50,MOLT-4 leukemia,2330 nM
same,TGI,MOLT-4 leukemia,6920 nM
same,GI50,OVCAR-5 ovarian,1810 nM
same,TGI,OVCAR-5 ovarian,3400 nM
same,GI50,SR leukemia,2210 nM
same,TGI,SR leukemia,10500 nM
same,GI50,SK-MEL-28 melanoma,1750 nM
same,TGI,SK-MEL-28 melanoma,3250 nM
same,GI50,SW-620 colon,1890 nM
same,TGI,SW-620 colon,3710 nM
same,GI50,SN12C renal,1610 nM
same,TGI,SN12C renal,3030 nM
same,GI50,SNB-19 CNS,1980 nM
same,TGI,SNB-19 CNS,3830 nM
same,GI50,NCI/ADR-RES ovarian,2070 nM
same,TGI,NCI/ADR-RES ovarian,4300 nM
same,GI50,MDA-MB-435,1810 nM
same,TGI,MDA-MB-435,3350 nM
same,GI50,TK-10 renal,2310 nM
same,TGI,TK-10 renal,5280 nM
same,GI50,SK-MEL-2 melanoma,2100 nM
same,TGI,SK-MEL-2 melanoma,3950 nM
same,GI50,K-562 leukemia,2100 nM
same,TGI,K-562 leukemia,> 100000 nM
same,GI50,CAKI-1 renal,1990 nM
same,TGI,CAKI-1 renal,4210 nM
same,GI50,HOP-62 NSCLC,1930 nM
same,TGI,HOP-62 NSCLC,3850 nM
same,GI50,HOP-92 NSCLC,1600 nM
same,TGI,HOP-92 NSCLC,3310 nM
same,GI50,HCC-2998 colon,1820 nM
same,TGI,HCC-2998 colon,3250 nM
same,GI50,COLO 205 colon,1950 nM
same,TGI,COLO 205 colon,3780 nM
same,GI50,HCT-15 colon,1470 nM
same,TGI,HCT-15 colon,2930 nM
same,GI50,SF-539 CNS,1650 nM
same,TGI,SF-539 CNS,3090 nM
same,GI50,SNB-75 CNS,1940 nM
same,TGI,SNB-75 CNS,6040 nM
same,GI50,NCI-H226 lung,2350 nM
same,TGI,NCI-H226 lung,5710 nM
same,GI50,M14 melanoma,2000 nM
same,TGI,M14 melanoma,3930 nM
same,GI50,T-47D breast,2240 nM
same,TGI,T-47D breast,6610 nM
same,GI50,MCF7 breast,1780 nM
same,TGI,MCF7 breast,3630 nM
same,GI50,ACHN renal,1880 nM
same,TGI,ACHN renal,3540 nM
same,GI50,HL-60(TB) leukemia,2810 nM
same,TGI,HL-60(TB) leukemia,7740 nM
same,GI50,UACC-62 melanoma,1690 nM
same,TGI,UACC-62 melanoma,3230 nM
same,GI50,UO-31 renal,1580 nM
same,TGI,UO-31 renal,3060 nM
same,GI50,786-0 renal,1800 nM
same,TGI,786-0 renal,3380 nM
same,GI50,PC-3 prostate,1640 nM
same,TGI,PC-3 prostate,3720 nM
same,GI50,NCI-H460 lung,1860 nM
same,TGI,NCI-H460 lung,3570 nM
same,GI50,DU-145 prostate,1940 nM
same,TGI,DU-145 prostate,3580 nM
